# Experimental data published in US8846653B2, “Delta-tocotrienol treatment and prevention of pancreatic cancer” (University of South Florida, priority 2006, dated 2014).
# Tests used:
# Assay type in all cases: cell-based, human
# BXPC3 cells = assay: MTT assay of BXPC3 cultures, single 50 μM dose; parameters: MTT assay result, run 1 / MTT assay result, run 2 / MTT assay result, run 3 / MTT assay result, run 4 / MTT assay result, run 5 / MTT assay result, run 6 / MTT assay result, run 7 / MTT assay result, av (average) / MTT assay result, av-blank / MTT assay result, av: unit not given here; conditions: BXPC3, 50 μM; for MTT assay result, av-blank: average minus blank
# Summary of the method: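 Viability measured by MTT assay 48 or 120 hours after one 50 μM treatment with tocol-family compounds, geranylgeraniol, succinic acid or vehicle, with untreated cultures in parallel. BXPC3 cells grown in FBS-supplemented medium, 37° C, humidified 5% CO2.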
# [1] = tested on: SW1990 pancreatic cancer cells; assay: MTS assay of SW1990 cultures, single 50 μM dose; conditions: SW1990, 50 μM
# Summary of the method: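 MTS-based viability was measured 24, 48 or 72 h after a single 50 μM treatment; the agents were α/β/γ/δ-tocotrienol, α/β-tocopherol, tocopherol succinate, geranylgeraniol or succinic acid. The cells were SW1990, cultured in 10% FBS DMEM. Vehicle (ethanol-extracted olive oil) cultures ran in parallel as reference.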
# MiaPaCa-2 cells = assay: MTT assay of MiaPaCa2 cultures, single 50 μM dose; parameters: rel amt (relative value set to the control): unit not given here; conditions: MiaPaCa2, 50 μM; for MTT assay result, av-blank: average minus blank; for MTT assay result, av: average of 7 runs
# Summary of the method: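 Viability measured by MTT 48 or 120 hours post-treatment, with a vehicle-only (ethanol-extracted olive oil) culture as control. MiaPaCa-2 cultures received one 50 μM exposure to a tocotrienol, tocopherol, tocopherol succinate, geranylgeraniol or succinic acid.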
smiles,measurement,setting,value
"CC(C)=CCC/C(C)=C/CC/C(C)=C/CC/C(C)=C/CO [GG, geranylgeraniol]",rel amt (relative value set to the control),BXPC3 cells; 48 hours,108
same,"MTT assay result, av-blank",BXPC3 cells; 48 hours,0.246
same,"MTT assay result, av (average)","BXPC3 cells; 48 hours, average of 7 runs",0.295
same,"MTT assay result, run 1",BXPC3 cells; 48 hours,0.308
same,"MTT assay result, run 2",BXPC3 cells; 48 hours,0.272
same,"MTT assay result, run 3",BXPC3 cells; 48 hours,0.299
same,"MTT assay result, run 4",BXPC3 cells; 48 hours,0.291
same,"MTT assay result, run 5",BXPC3 cells; 48 hours,0.299
same,"MTT assay result, run 6",BXPC3 cells; 48 hours,0.3
same,"MTT assay result, run 7",BXPC3 cells; 48 hours,0.294
same,rel amt (relative value set to the control),BXPC3 cells; 120 hours (5 days),106
same,"MTT assay result, av-blank",BXPC3 cells; 120 hours (5 days),0.610
same,"MTT assay result, av","BXPC3 cells; 120 hours (5 days), average of 7 runs",0.665
same,"MTT assay result, run 1",BXPC3 cells; 120 hours (5 days),0.621
same,"MTT assay result, run 2",BXPC3 cells; 120 hours (5 days),0.655
same,"MTT assay result, run 3",BXPC3 cells; 120 hours (5 days),0.672
same,"MTT assay result, run 4",BXPC3 cells; 120 hours (5 days),0.663
same,"MTT assay result, run 5",BXPC3 cells; 120 hours (5 days),0.657
same,"MTT assay result, run 6",BXPC3 cells; 120 hours (5 days),0.724
same,"MTT assay result, run 7",BXPC3 cells; 120 hours (5 days),0.66
same,rel amnt (relative value set to the control),[1]; 24 hours,92
same,"MTS assay result, run 1",[1]; 24 hours,0.158
same,"MTS assay result, run 2",[1]; 24 hours,0.133
same,"MTS assay result, run 3",[1]; 24 hours,0.133
same,"MTS assay result, run 4",[1]; 24 hours,0.137
same,"MTS assay result, run 5",[1]; 24 hours,0.131
same,"MTS assay result, run 6",[1]; 24 hours,0.14
same,"MTS assay result, run 7",[1]; 24 hours,0.132
same,"MTS assay result, run 8",[1]; 24 hours,0.121
same,"MTS assay result, run 9",[1]; 24 hours,0.136
same,rel amnt (relative value set to the control),[1]; 48 hours,83
same,"MTS assay result, run 1",[1]; 48 hours,0.078
same,"MTS assay result, run 2",[1]; 48 hours,0.129
same,"MTS assay result, run 3",[1]; 48 hours,0.13
same,"MTS assay result, run 4",[1]; 48 hours,0.128
same,"MTS assay result, run 5",[1]; 48 hours,0.133
same,"MTS assay result, run 6",[1]; 48 hours,0.118
same,"MTS assay result, run 7",[1]; 48 hours,0.14
same,"MTS assay result, run 8",[1]; 48 hours,0.144
same,"MTS assay result, run 9",[1]; 48 hours,0.125
same,rel amnt (relative value set to the control),[1]; 72 hours,158
same,"MTS assay result, run 1",[1]; 72 hours,0.784
same,"MTS assay result, run 2",[1]; 72 hours,0.713
same,"MTS assay result, run 3",[1]; 72 hours,0.76
same,"MTS assay result, run 4",[1]; 72 hours,0.734
same,"MTS assay result, run 5",[1]; 72 hours,0.682
same,"MTS assay result, run 6",[1]; 72 hours,0.665
same,"MTS assay result, run 7",[1]; 72 hours,0.65
same,"MTS assay result, run 8",[1]; 72 hours,0.627
same,"MTS assay result, run 9",[1]; 72 hours,0.702
same,rel amt (relative value set to the control),MiaPaCa-2 cells; 48 hours,92
same,"MTT assay result, av-blank",MiaPaCa-2 cells; 48 hours,0.285
same,"MTT assay result, av",MiaPaCa-2 cells; 48 hours,0.331
same,"MTT assay result, run 1",MiaPaCa-2 cells; 48 hours,0.329
same,"MTT assay result, run 2",MiaPaCa-2 cells; 48 hours,0.339
same,"MTT assay result, run 3",MiaPaCa-2 cells; 48 hours,0.321
same,"MTT assay result, run 4",MiaPaCa-2 cells; 48 hours,0.328
same,"MTT assay result, run 5",MiaPaCa-2 cells; 48 hours,0.342
same,"MTT assay result, run 6",MiaPaCa-2 cells; 48 hours,0.317
same,"MTT assay result, run 7",MiaPaCa-2 cells; 48 hours,0.341
same,rel amt (relative value set to the control),MiaPaCa-2 cells; 120 hours (5 days),93
same,"MTT assay result, av-blank",MiaPaCa-2 cells; 120 hours (5 days),1.679
same,"MTT assay result, av",MiaPaCa-2 cells; 120 hours (5 days),1.731
same,"MTT assay result, run 1",MiaPaCa-2 cells; 120 hours (5 days),1.738
same,"MTT assay result, run 2",MiaPaCa-2 cells; 120 hours (5 days),1.608
same,"MTT assay result, run 3",MiaPaCa-2 cells; 120 hours (5 days),1.577
same,"MTT assay result, run 4",MiaPaCa-2 cells; 120 hours (5 days),1.744
same,"MTT assay result, run 5",MiaPaCa-2 cells; 120 hours (5 days),2.134
same,"MTT assay result, run 6",MiaPaCa-2 cells; 120 hours (5 days),1.606
same,"MTT assay result, run 7",MiaPaCa-2 cells; 120 hours (5 days),1.711
